Counter-ions that a name gives are not always drawn.
Test system: blood and tissues
Assay: Transcriptional profiling, multi-dosing regimen, naïve mice: blood and other tissues
Assay type: in vivo
Procedure: In vivo, DMF is rapidly metabolized to monomethyl fumarate (MMF). […] Animals were exposed to CO2 and whole blood collected via cardiac puncture. Two 100 μl aliquots of whole blood were collected in 1.5 mL microcentrifuge tubes and snap frozen in liquid nitrogen. Peripheral (liver, spleen, kidney and jejunum) and CNS brain (cerebellum, hippocampus, striatum and cortex) tissues were harvested and snap frozen in liquid nitrogen, with special care taken to collect tissues of similar size and from the same location. All samples were stored at -80° C. until RNA extraction was conducted. For RNA preparation, frozen tissues were placed in 2 mL RNAse-free 96-well blocks with 1.5 mL QIAzol Lysis Reagent (QIAgen) and a 3.2 mm stainless steel bead (BioSpec Products, Bartlesville, Okla.). Tissues were disrupted for four cycles of 45 seconds in a Mini-Beadbeater (Biospec Products). RNA was extracted in chloroform and the aqueous phase was mixed with an equal volume of 70% ethanol. Extracted RNA was applied to RNeasy 96 plates and purified by the spin method according to the manufacturer's protocol (RNeasy 96 Universal Tissue Protocol, QIAgen, Hilden Germany). 50 ul of snap frozen mouse blood was re-suspended in lysis buffer with proteinase K and arrayed into deep-well plates for automated RNA extraction. RNA extractions were completed on […] (Beckman Coulter, Indianapolis, Ind.) using Agencourt RNAdvance Blood kit (Part number A35604) according to the manufacturer's specifications. RNA integrity was assessed using the HT RNA reagent kit (Part number 760410, Caliper Life Sciences, Hopkinton, Mass.) using a LabChip GX (PerkinElmer, Waltham, Mass.). RNA samples with a RQS score of >8.0 were considered high quality for downstream microarray processing. […] Two micrograms of biotin labeled […] probe were hybridized to Affymetrix GeneChip Affymetrix HT_MG-430_PM plate arrays with modified conditions as described in […] et al. Washing and staining of the hybridized arrays were completed as described in the GeneChip Expression analysis technical manual for HT plate arrays using the Genechip® Array Station (Affymetrix, Santa Clara, Calif.) with modifications as described in […] et al. The processed GeneChip® plate arrays were scanned using GeneTitan scanner (Affymetrix, Santa Clara, Calif.). Affymetrix scans were subject to quality control (QC) measures. These tests included a visual inspection of the distribution of raw signal intensities and an assessment of RNA degradation, relative log expression (RLE), and normalized unsealed standard error (NUSE). All sample scans that passed these QC metrics were included in the analysis. All CEL files were subjected to GC-content-based Robust Multi-array Average (GCRMA) normalization (version 2.20.0) (Irizarry R A, et al. Nucleic Acids Res 2003; 31:e15; Li C, et al. Genome Biol 2001; 2:[…]0032). […] Stat Appl Genet Mol Biol 2004; 3:Article3). […] Springer Science+Business Media 2005). Changes in gene expression were studied by applying a linear modeling approach to fit gene expression levels according to the defined groups of samples (e.g. DMF-, MMF-, and Vehicle-treated animals) and Bayesian posterior error analysis as implemented by Smyth (Smyth G K. Stat Appl Genet Mol Biol 2004; 3:Article3). The comparisons considered included: DMF-vs-MMF, DMF-vs-Vehicle, and MMF-vs-Vehicle. […] Very few DEGs are observed in blood and tissues derived from the central nervous system (brain, cerebellum, cortex, striatum, and spinal cord).

[1] = CEREBELLUM, 100MMF-vs-Veh, naïve multidose
[2] = LYMPH NODE, 100MMF-vs-Veh, naïve multidose
[3] = Table 13: Naïve, Single Dose (so in the source), 90 mpk MMF-vs-Vehicle, 12 h after last dosing
[4] = WHOLE BLOOD, 100MMF-vs-Veh, naïve multidose

## COC(=O)/C=C/C(=O)O [MMF, monomethyl fumarate]
1447339_PM_at (no gene symbol), WHOLE BLOOD, 100MMF-vs-Veh
  FC: 2.49
[1]
  FC 1110021J02Rik (1419892_PM_at): 1.56
  FC 9430064I24Rik (1442912_PM_at): 1.86
  FC Aox1 (1419435_PM_at): 1.54
  FC Apold1 (1441228_PM_at): 1.95
  FC Cntn2 (1456962_PM_at): 1.98
  FC D130062J21Rik (1446929_PM_at): 1.66
  FC Kat2b (1450821_PM_at): −1.68
  FC Lrrc50 (1421974_PM_at): 1.61
  FC Pcsk1n (1416965_PM_at): 1.50
  FC Prr15 (1452473_PM_at): 1.53
  FC Slc35a5 (1423457_PM_at): −1.50
  FC Sox12 (1439754_PM_at): 1.67
  FC Tm6sf2 (1425079_PM_at): 1.85
  FC probe 1442605_PM_at (no gene symbol): −1.75
  FC probe 1446131_PM_at (no gene symbol): 1.78
Csf1 1460220_PM_a_at, WHOLE BLOOD, 100MMF-vs-Veh
  FC: 1.75
Csrp3 1460318_PM_at, WHOLE BLOOD, 100MMF-vs-Veh
  FC: 1.52
Egr3 1436329_PM_at, WHOLE BLOOD, 100MMF-vs-Veh
  FC: −1.60
Gstm1 1416416_PM_x_at, WHOLE BLOOD, 100MMF-vs-Veh
  FC: 1.59
[2]
  FC Gtf2ird1 (1460364_PM_at): 1.56
  FC Npas2 (1421037_PM_at): 1.75
  FC Nqo1 (1423627_PM_at): 1.74
Lpl 1415904_PM_at, WHOLE BLOOD, 100MMF-vs-Veh
  FC: 2.65
Pla2g7 1430700_PM_a_at, WHOLE BLOOD, 100MMF-vs-Veh
  FC: 1.76
Slc27a2 1416316_PM_at, WHOLE BLOOD, 100MMF-vs-Veh
  FC: −1.93
[3]
  Number of differentially expressed genes identified: Cerebellum: 15
  Number of differentially expressed genes identified: Lymph Node: 3
  Number of differentially expressed genes identified: Whole blood: 11
Tnfaip2 1416273_PM_at, WHOLE BLOOD, 100MMF-vs-Veh
  FC: 1.81
Tnfaip2 1438855_PM_x_at, WHOLE BLOOD, 100MMF-vs-Veh
  FC: 1.52
Trf 1425546_PM_a_at, WHOLE BLOOD, 100MMF-vs-Veh
  FC: 1.56
[4]
  FC A230048O21Rik (1458051_PM_at): 1.53
  FC Aco1 (1456728_PM_x_at): −2.14
  FC Adamts20 (1456901_PM_at): −1.69
  FC Adora2a (1460710_PM_at): 1.66
  FC Ankrd33b (1453782_PM_at): −1.64
  FC Anks1b (1460449_PM_at): −1.56
  FC Armcx2 (1456739_PM_x_at): −1.76
  FC Ascc3 (1457069_PM_at): −1.61
  FC B3galnt2 1454842_PM_a_at: −1.86
  FC B3galt1 (1455234_PM_at): −1.50
  FC Cno 1459783_PM_s_at: −1.77
  FC Commd3 (1454642_PM_a_at): −1.50
  FC Cycs /// Gm10053 1456071_PM_a_at: −1.64
  FC D6Wsu116e (1456056_PM_a_at): −1.74
  FC Ddr1 (1456226_PM_x_at): −1.58
  FC Dnaja1 (1459835_PM_s_at): −1.60
  FC Eftud2 (1456107_PM_x_at): −1.61
  FC Eif4g2 (1452758_PM_s_at): −1.91
  FC Epc2 (1455317_PM_at): −1.56
  FC Fgd4 (1455337_PM_at): −1.52
  FC Fgfbp3 (1453006_PM_at): −1.58
  FC Gm8203 /// H2afz (1456032_PM_x_at): −1.53
  FC Gsto1 1456036_PM_x_at: −1.64
  FC Gtf3c3 (1454765_PM_at): −1.82
  FC Hecw1 (1456527_PM_at): −1.55
  FC Hspa1b 1452318_PM_a_at: −1.57
  FC Itga8 (1454966_PM_at): −1.51
  FC Kbtbd7 (1452700_PM_s_at): −1.52
  FC Kcnt2 (1459971_PM_at): −1.73
  FC Kctd3 1455816_PM_a_at: −1.88
  FC Lasp1 (1455470_PM_x_at): −1.56
  FC Lrrtm1 (1455883_PM_a_at): −1.60
  FC Lztr1 (1455928_PM_x_at): −2.01
  FC Matn2 (1455978_PM_a_at): −2.07
  FC Mrps23 (1459806_PM_x_at): −1.56
  FC Nr3c1 (1457635_PM_s_at): −1.58
  FC Odz2 (1457273_PM_at): −1.53
  FC Olfm1 (1455796_PM_x_at): −1.65
  FC Pcdh17 (1453070_PM_at): −1.53
  FC Pik3ca (1453134_PM_at): −1.62
  FC Pitrm1 (1456577_PM_x_at): −1.68
  FC Prcp (1452190_PM_at): 1.53
  FC Ptpn12 (1455105_PM_at): −1.54
  FC Pvrl3 (1457257_PM_x_at): −2.12
  FC Qrsl1 (1456542_PM_s_at): −1.67
  FC Ralgapa2 (1455750_PM_at): −1.74
  FC Ric8 (1455809_PM_x_at): −1.56
  FC Rnf112 (1456108_PM_x_at): −1.57
  FC Rp2h (1454816_PM_at): −1.51
  FC Snx16 (1456041_PM_at): −1.78
  FC Sos2 (1452281_PM_at): −1.56
  FC Surf4 (1455822_PM_x_at): −1.56
  FC Tceb1 1452593_PM_a_at: −1.52
  FC Tmed10 (1454688_PM_x_at): −1.52
  FC Tnik (1458403_PM_at): −1.58
  FC Tra2a (1454725_PM_at): −1.65
  FC Trim23 (1456089_PM_at): −1.71
  FC Ubr3 (1460455_PM_at): −1.63
  FC Wdr6 (1455940_PM_x_at): −1.50
  FC Wtap (1454805_PM_at): −1.57
  FC probe 1452426_PM_x_at (no gene symbol): −1.56
  FC probe 1455603_PM_at (no gene symbol): −1.71
  FC probe 1457494_PM_at (no gene symbol): −1.53
  FC probe 1458639_PM_at (no gene symbol): 1.51
  FC probe 1459409_PM_at (no gene symbol): 1.71
